Measurements: US20100092443A1, “NOVEL COMBINATIONS OF NITROGENATED HETEROCYCLIC ANTIBACTERIAL COMPOUNDS WITH OTHER ANTIBACTERIAL COMPOUNDS AND THE USE OF SAME AS DRUGS” (priority 2008, published 2010)
Structures can show the parent of a compound that is named as a salt. Where two headings read alike, the source gives them in different places.

Key:
[1] = system: E. aerogenes; test: MIC, dilutions in liquid medium, alone and combined with NXL105; format: cell-based; conditions: E. aerogenes EAR2, Case-R + FEP-R
[2] = system: P. aeruginosa (391 HT2); test: MICs determined on microplates; format: cell-based, Pseudomonas aeruginosa; conditions: sensitive strain P. aeruginosa 391 HT2
Method: (§1) The minimum inhibitory concentrations (MICs) of the products to be tested (products alone and combinations) are determined in advance. • For each concentration of product to be tested as well as the control stock, an Erlenmeyer flask containing 18.5 ml Muller-Hinton medium (Ca^++) is prepared. • From an overnight culture in broth or a bacterial suspension of OD (optical density)=1, a 1/100 dilution is prepared. • The sample is cultured with agitation for 2 h at 37° C. • OD is measured: if >0.5, the sample is diluted to 1/10. • Each Erlenmeyer flask is inoculated with 1 ml of the agitated culture or its dilution. The initial inoculum should be 1×10^6 CFU/ml. • The various antibiotic solutions are added at a volume of 0.5 ml and 0.5 ml of medium in the control Erlenmeyer flask. • With a volume of 0.1 ml, the control Erlenmeyer flask is numbered=TO. • The flask is incubated at 37° C. with agitation. • At each sampling point (2, 4, 6, 24, 48 hours), a volume of 0.1 ml is sampled from each Erlenmeyer flask and numbered. • Plates for all the numbered samples are incubated (24 h-48 h) at 37° C.
Bactericidal activity was evaluated on a sensitive strain of P. aeruginosa (391 HT2)

[3] = system: P. aeruginosa (391 HT2); test: MICs in a volume of 10 ml, bactericidal conditions (exponential bacterial growth); format: cell-based, Pseudomonas aeruginosa
Method: as §1
For the bactericidal tests, MICs are determined in a volume of 10 ml-bactericidal conditions (exponential bacterial growth): […]

Structure (SMILES) | MIC [1] [µg/mL] | MIC determined on microplates [2] [µg/mL] | MIC in a volume of 10 ml, bactericidal conditions [3] [µg/mL] | MIC ([1]; Klebsiella aerogenes, 24 h, read-out: MIC) [µg/mL] | MIC ([2]; Pseudomonas aeruginosa) [µg/mL] | MIC ([3]; Pseudomonas aeruginosa) [µg/mL]
Cn1ncc2c1[C@@H](CN)N1C[C@H]2N(OS(=O)(=O)O)C1=O (relative stereo) [NXL105, Sodium and Trifluoroacetate Salts of trans 8-(aminomethyl)-4,8-dihydro-1-methyl-5-(sulphooxy)-4,7-methano-7H-pyrazolo[3,4-e][1,3]diazepin-6(5H)-one] | >32 | 0.25 | 0.25 |  |  | 
CC(C)(O/N=C(\C(=O)N[C@@H]1C(=O)N2C(C(=O)[O-])=C(C[n+]3ccccc3)CS[C@H]12)c1csc(N)n1)C(=O)O [Ceftazidime] |  |  |  | > 32 | 2 | 8
